Values quoted from earlier work as cited in patent publication US20250000823A1, “METHODS AND COMPOSITIONS FOR TREATING CONDITIONS ASSOCIATED WITH CENTRAL HYPOVENTILATION” (APNIMED, INC. (DELAWARE), priority 2021, published 2025).

Tested on: patients with OHS
Settings: acetazolamide alone

## CC(=O)Nc1nnc(S(N)(=O)=O)s1 [Acetazolamide, N-(5-Sulfamoyl-1,3,4-thiadiazol-2-yl)acetamide]
  alveolar ventilation: improve alveolar ventilation
